This note sets out measurements from ChEMBL document CHEMBL4052631, “Synthesis of selective 11β-HSD1 inhibitors based on dammarane scaffold” (Eur J Med Chem, 2017).

Chain of 11-beta-hydroxysteroid dehydrogenase 1 (P50172 whole entry): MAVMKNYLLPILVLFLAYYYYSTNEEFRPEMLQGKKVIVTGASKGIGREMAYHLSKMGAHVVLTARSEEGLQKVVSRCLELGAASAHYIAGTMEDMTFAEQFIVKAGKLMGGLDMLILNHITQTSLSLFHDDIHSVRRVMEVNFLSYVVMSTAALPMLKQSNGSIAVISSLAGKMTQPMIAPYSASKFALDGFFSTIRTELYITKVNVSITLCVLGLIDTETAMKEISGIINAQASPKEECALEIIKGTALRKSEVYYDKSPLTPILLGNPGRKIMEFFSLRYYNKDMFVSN

In one assay the target is 11-beta-hydroxysteroid dehydrogenase 1 (Mus musculus) (UniProt P50172). The following applies: at 1 µM.
Chain of 11-beta-hydroxysteroid dehydrogenase 1 (Mus musculus) (P50172 whole entry, looked up): as the sequence (P50172 whole entry) above
Description: Inhibition of full-length mouse 11beta-HSD1 expressed in HEK293 microsomal fraction at 1 uM using [3H]cortisone as substrate after 1 hr by scintillation proximity assay relative to control
In the case of `CC(=O)O[C@H]1CC[C@]2(C)[C@H]3C[C@@H](OC(C)=O)[C@@H]4[C@@H](O)CC[C@@]4(C)[C@]3(C)CC[C@H]2C1(C)C`, the inhibition (commonly the relative decrease from the control value, in per cent) is 13.3%.
On the same count and under the same terms, under `CC(=O)O[C@H]1CC[C@]2(C)[C@H]3C[C@@H](OC(C)=O)[C@@H]4C(=O)CC[C@@]4(C)[C@]3(C)CC[C@H]2C1(C)C` stands 12.5%; under `CC1(C)[C@@H](O)CC[C@]2(C)[C@H]3C[C@@H](O)[C@@H]4[C@H](O)CC[C@@]4(C)[C@]3(C)CC[C@@H]12`, 47%; under `CC(=O)[C@H]1CC[C@]2(C)[C@@H]1[C@H](O)C[C@@H]1[C@@]3(C)CC[C@H](O)C(C)(C)[C@@H]3CC[C@]12C`, 27.1%.
Same read-out and setting: the same measure for `CC1(C)CCC[C@]2(C)[C@H]3C[C@@H](O)[C@@H]4[C@@H](O)CC[C@@]4(C)[C@]3(C)CC[C@@H]12`: 6.25%.
Same read-out and setting: the same measure for `CC(C)(O)[C@@H]1CC[C@]2(C)[C@H](C[C@@H](O)[C@@H]3[C@@H](O)CC[C@]32C)[C@@]1(C)CCC(=O)O`: 20.8%; for `CC1=C2CC[C@]3(C)[C@@H]2[C@@H](C[C@@H]2[C@@]4(C)CC[C@H](O)C(C)(C)[C@@H]4CC[C@]23C)OCO1`: 15.5%.
In turn, `CC(C)CCCC(=O)[C@H]1CC[C@]2(C)[C@@H]1[C@H](O)C[C@@H]1[C@@]3(C)CC[C@H](O)C(C)(C)[C@@H]3CC[C@]12C` returned an inhibition of 17.3%.
Still for that read-out and setting: under `CC1(C)[C@@H](O)CC[C@]2(C)[C@H]3C[C@@H](O)[C@@H]4[C@@H](O)CC[C@@]4(C)[C@]3(C)CC[C@@H]12` stands 28.2%; under `CC1(C)[C@@H](O)CC[C@]2(C)[C@H]3C[C@@H](O)[C@]45O[C@H]4CC[C@@]5(C)[C@]3(C)CC[C@@H]12`, 16.9%.
`CC1(C)[C@@H](O)CC[C@]2(C)[C@H]3C[C@@H](O)C4=CCC[C@@]4(C)[C@]3(C)CC[C@@H]12` yielded an inhibition of 33.2%.
Turning to `CC(C)(O)[C@@H]1CC[C@]2(C)[C@H](C[C@@H](O)[C@@H]3[C@@H](O)CC[C@]32C)[C@@]1(C)CCCO`, the inhibition amounted to 16.1%.
The same measure, in the same setting: the same measure for `CC(=O)O[C@H]1CC[C@]2(C)[C@H]3C[C@@H](OC(C)=O)[C@@H]4[C@@H](Cl)CC[C@@]4(C)[C@]3(C)CC[C@H]2C1(C)C`: 8.02%; for `CC1(C)[C@@H](O)CC[C@]2(C)[C@H]3C[C@@H](O)[C@@H]4[C@@H](C(=O)CO)CC[C@@]4(C)[C@]3(C)CC[C@@H]12`: 32.2%; for `CC(=O)[C@H]1CC[C@]2(C)[C@@H]1[C@H](O)C[C@@H]1[C@@]3(C)CCC(=O)OC(C)(C)[C@@H]3CC[C@]12C`: 27.6%.
Still for that read-out and setting: the same measure for `CC1(C)[C@@H](O)CC[C@]2(C)[C@H]3C[C@H]4OC[C@H]5CC[C@](C)([C@@H]54)[C@]3(C)CC[C@@H]12`: 44.9%; for `CC(=O)OCO[C@@H]1C[C@@H]2[C@@]3(C)CC[C@H](O)C(C)(C)[C@@H]3CC[C@@]2(C)[C@]2(C)CCC(=O)[C@@H]12`: 20.9%; for `CCC(=O)CC[C@]1(C)C(=O)[C@H](OC(C)=O)C[C@@H]2[C@@]3(C)CC[C@H](OC(C)=O)C(C)(C)[C@@H]3CC[C@]21C`: 13.3%.

The next assay concerns the target 11-beta-hydroxysteroid dehydrogenase 1 (Mus musculus, UniProt P50172). Kind of assay: Inhibition of full-length mouse 11beta-HSD1 expressed in HEK293 microsomal fraction […] after 1 hr by scintillation proximity assay.
Conditions: not given
In general terms: SPA uses beads or plates that emit light when radiolabelled molecules are held near them.
Regarding `CO[C@H]1CC(=O)[C@]2(C)[C@@H]1[C@H](OC(C)=O)C[C@@H]1[C@@]3(C)CC[C@H](O)C(C)(C)[C@@H]3CC[C@]12C`, the IC50 (commonly the point on the concentration scale where inhibition reaches its midpoint) amounted to 400 nM. In other words, the sub-micromolar range.
